This is an account of results in patent US6028188A (priority 1994, dated 2000).

For series [1], the system named is complementary RNA targets. The series is described as follows: Tm with complementary RNA target, oligomers 5'-TAG-CTT-CCT-TAG-CTC-CTG-3'. Type of series: binding. The settings on record: Table XI. On the procedure: (§1) Annealing reaction mixtures contained equimolar amounts of Oligomer and RNA target Oligomer (2.4 μM total strand concentration), 20 mM potassium phosphate (pH 7.2), 100 mM sodium chloride, 0.1 mM EDTA and 0.03% potassium sarkosylate. The reaction mixtures were heated to 80° C. and then slowly cooled to 4° C. over about 4 to 6 hours. The annealed samples were then transferred to 1 cm quartz cuvettes and Tm was monitored by absorbance at 260 nm as a function of temperature using a Varian Cary Model 2E Spectrophotometer containing a temperature controlled 6×6 sample holder which interfaced with an IBM compatible PC computer. The temperature was varied from 5° C. to 80° C. at a ramp rate of 1° C./minute. The Tm for each melt profile is determined as the point corresponding to the maximum of the first derivative of the curve corresponding to absorbance versus temperature.
The oligomers were synthesized according to methods set forth in the Examples herein and had mixed oligonucleoside sequences complementary to biologically relevant mRNA targets. Tm determinations were done according to the methods described in the proceeding Examples.

In series [2] the test system is pG1035 (SplicerCAT). In words: Inhibition of CAT expression, splicing reporter pG1035, in COS-7 cells. The settings on record: for reduction of CAT expression: pG1035, 1.0 micromolar.
Series [3] has as its system splice acceptor site. The series is described as follows: Tm of splice acceptor site oligomers. Type of series: binding. The settings on record: Table XIII. On the procedure:
as §1
The results are given as percent gene expression relative to no-oligomer treatment of cells. The concentration is given above the data columns in micromolar. CAT levels were determined in triplicate as previously given and the experiment has been repeated multiple times. The Tm of the oligomers was determined as previously given.

Series [4] has as its system pGL2 (luciferase). Type of series: cell-based. The settings on record: for percent gene expression relative to no-oligomer treatment, pGL2 (splicing, no match): 1.0 μM; for inhibition of luciferase expression (in words): pGL2. How it is done: All cultures were maintained at 37° C.
This assay was performed generally as follows according to standard procedures. 20 μl of lysate was combined with 100 μl of luciferase assay reagent (Promega) and counted in a scintillation counter (Packard) within 20 seconds (as recommended by Promega).
In order to determine that the effect against pG1035 was not due to non-specific interference of splicing in general, pGL2 was used as an additional control. pGL2 encodes the luciferase gene and contains an intron that is unrelated to the intron in pG1035.

Series [5] relates to pG1036 (wild-type CAT). The series is described as follows: CAT expression, non-splicing reporter pG1036, in COS-7 cells. The settings on record: for inhibition of expression of non-splicing CAT gene (in words): pG1036.

[mp] = methylphosphonate linkage

Take “1630-1: 5'-TAG-CTT-CCT-TAG-CTC-CTG-3' [SEQ. ID. NO. 5], Racemic MP (DNA TAGCTTCCTTAGCTCCTG; all [mp], sugars by position and methylation of C not given here) [Oligomer 1630-1]”: the “Tm(° C. RNA)” value in series [1] was 39.0 °C.

For “3373-1B: 18 mer 2'-O-Me (MP(Rp)/DE), 5'-gag aga gag aga ggt tcg-3' [SEQ. ID. NO. 13] (GAGAGAGAGAGAGGTTCG; all 2'-O-methyl, backbone, methylation of C and T or U not given here; Rp methylphosphonate and diester linkages) [Oligomer 3373-1B]”, the results for the “percent gene expression relative to no-oligomer treatment, pG1035 (splicing)” value in series [2] (0.1 μM), in series [2] (0.3 μM) and in series [2] (head printed 0.1) were 59%, 31% and 10%, respectively. Besides, in series [2], the “reduction of CAT expression” value amounted to 90%. The Tm in series [3] came to 80 °C. In addition, the “percent gene expression relative to no-oligomer treatment, pGL2 (splicing, no match)” value in series [4] was determined as 127%. The “inhibition of luciferase expression (in words)” value in series [4] is on record as “not inhibited in any way”. Further, the “percent gene expression relative to no-oligomer treatment, pG1036 (non-splicing)” value in series [5] (0.1 μM) amounted to 95%; in series [5] (0.3 μM) it was 85%; in series [5] (1.0 μM) it was 81%. In series [5], the “inhibition of expression of non-splicing CAT gene (in words)” value is listed as “Neither oligomer inhibited the expression of the non-splicing CAT gene, pG1036, significantly”.

As to “3373-1A: 24 mer, 2'-O-Me (MP(Rp)/DE), 5'-ccc tga gag aga gag aga ggt tcg [SEQ. ID. NO. 12] (CCCTGAGAGAGAGAGAGAGGTTCG; all 2'-O-methyl, backbone, methylation of C and T or U not given here; Rp methylphosphonate and diester linkages) [Oligomer 3373-1A]”, the “percent gene expression relative to no-oligomer treatment, pG1035 (splicing)” value in series [2] (0.1 μM) came to 81%; in series [2] (0.3 μM), 48%; in series [2] (head printed 0.1), 26%. Further, the “reduction of CAT expression” value in series [2] is 74%. Besides, the Tm in series [3] amounted to 84 °C. Moreover, the “percent gene expression relative to no-oligomer treatment, pGL2 (splicing, no match)” value in series [4] is on record as 127%. In addition, the “inhibition of luciferase expression (in words)” value in series [4] was “not inhibited in any way”. Moreover, the results for the “percent gene expression relative to no-oligomer treatment, pG1036 (non-splicing)” value in series [5] (0.1 μM), in series [5] (0.3 μM) and in series [5] (1.0 μM) were 91%, 89% and 105%, respectively. For the same substance, in series [5], the “inhibition of expression of non-splicing CAT gene (in words)” value was “Neither oligomer inhibited the expression of the non-splicing CAT gene, pG1036, significantly”.
